Reference: paper PMC6399176, “Assembly of a heterodinuclear Mn/Fe cofactor is coupled to tyrosine–valine ether cross-link formation in the R2-like ligand-binding oxidase” (Journal of Biological Inorganic Chemistry, 2019)

Biological target: T1, R2loxI (R2-like ligand-binding oxidase, R2lox) (Geobacillus kaustophilus, UniProt Q5KW80, A171F)
T1 construct: gene GK2771; full-length, N-terminal hexahistidine tag, pET-46 Ek/LIC, E. coli BL21(DE3), purified metal-free
Assay: X-ray crystallography
Conditions: oxidized resting state, Mn/Fe-soaked crystal; ligand co-purified, further up in the tunnel, not at the metals; modelled as C8 acid from partial density, true identity and chain length uncertain

T1 sequence (Q5KW80 entry or part of it A171F): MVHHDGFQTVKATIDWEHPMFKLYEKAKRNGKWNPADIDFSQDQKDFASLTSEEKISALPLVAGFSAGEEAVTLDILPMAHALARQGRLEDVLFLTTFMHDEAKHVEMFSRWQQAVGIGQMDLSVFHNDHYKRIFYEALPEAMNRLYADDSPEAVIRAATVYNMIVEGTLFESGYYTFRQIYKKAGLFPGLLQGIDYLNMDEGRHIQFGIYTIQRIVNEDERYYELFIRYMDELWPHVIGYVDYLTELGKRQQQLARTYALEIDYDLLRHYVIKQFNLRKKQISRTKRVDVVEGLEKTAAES

Question: With `CCCCCCCC(=O)O` [caprylic (C8) acid] as the molecule, how does the X-ray crystallography read?
Answer: could only reasonably be modeled (as caprylic (C8) acid) in the oxidized state
